Measured values as given in patent publication US20060063755A1, “Loxapine analogs and methods of use thereof” (priority 2004, published 2006).
Read-outs that look alike come from different tables or passages of the source.

Experiments:
Dopamine, D1 [1] = molecular target: Dopamine, D1 (Rattus norvegicus, UniProt P18901); assay: Dopamine D1 binding, rat
Protocol: (§1) Binding assays were performed using the disclosed sleep-inducing agents and derivatives selected from those listed in Table 1 in competitive binding assays with known standards for the H1 histamine receptor, and the M1, M2, and M3 muscarinic receptors, alpha 1 and alpha 2 receptors, and D1 and D2 receptors.

M3 muscarinic receptor = molecular target: T1, M3 muscarinic receptor (Homo sapiens, UniProt P20309); assay: M3 binding assay, [3H]-scopolamine N-methyl chloride, CHO cells; details: human recombinant
T1 construct: purchased PerkinElmer, Inc., Wellesley, Mass; host or cells: CHO cells

H1 histamine receptor [2] = molecular target: H1 histamine receptor (Homo sapiens, UniProt P35367); assay: H1 binding, human (footnote of Table 8)
Protocol: as §1

alpha 2 receptors = assay: Alpha 2 receptor binding assay; details: read-out: Ki Alpha2
Protocol: as §1

alpha 1 receptors = assay: Alpha 1 receptor binding assay; details: read-out: Ki Alpha1
Protocol: as §1

D2 receptors [3] = molecular target: D2 receptors (Homo sapiens, UniProt P14416); assay: Dopamine D2 binding assay (human)
Protocol: as §1, with “receptors. […]” for “receptors.”

H1 histamine receptor [4] = molecular target: H1 histamine receptor (Rattus norvegicus, UniProt P31390); assay: H1 binding, rat (footnote of Table 8)
Protocol: as §1

D2 receptors [5] = molecular target: D2 receptors (Rattus norvegicus, UniProt P61169); assay: Dopamine D2 binding, rat
Protocol: as §1

hERG channel = hERG channel (Homo sapiens, UniProt Q12809); assay: hERG channel current block, whole cell recording in HEK293 cells; format: cell-based; details: HEK293 cells expressing hERG
Protocol: Other in vitro selection criteria for loxapine analogs of the invention includes hERG binding.
(Brown and Rampe (2000)).
In one embodiment of the HERG assay, the positive control (i.e., reference compound) is terfenadine (Sigma, St. Louis Mo.), which has been shown, at a concentration of 60 nM, to block HERG current by approximately 75%. Test compounds are delivered in HEPES-buffered physiological saline (HB-PS)+0.1% dimethyl sulfoxide (DMSO).
Clin. Exp. Allergy 29 Suppl 3, 174-181.
If the final DMSO concentration must be greater than 0.3%, to reach a specified test article concentration, a separate vehicle control test with an n>2 was performed at the highest final DMSO concentration.
Each cell acted as its own control. […] One concentration of the positive control article (60 nM terfenadine) was applied to two cells (n≧2).

M1 muscarinic receptor [6] = molecular target: T2, M1 muscarinic receptor (Homo sapiens, UniProt P11229); assay: M1 binding assay, [3H]-scopolamine N-methyl chloride, CHO cells; details: human recombinant
T2 construct: purchased PerkinElmer, Inc., Wellesley, Mass; host or cells: CHO cells
T2 sequence (P11229 1-460): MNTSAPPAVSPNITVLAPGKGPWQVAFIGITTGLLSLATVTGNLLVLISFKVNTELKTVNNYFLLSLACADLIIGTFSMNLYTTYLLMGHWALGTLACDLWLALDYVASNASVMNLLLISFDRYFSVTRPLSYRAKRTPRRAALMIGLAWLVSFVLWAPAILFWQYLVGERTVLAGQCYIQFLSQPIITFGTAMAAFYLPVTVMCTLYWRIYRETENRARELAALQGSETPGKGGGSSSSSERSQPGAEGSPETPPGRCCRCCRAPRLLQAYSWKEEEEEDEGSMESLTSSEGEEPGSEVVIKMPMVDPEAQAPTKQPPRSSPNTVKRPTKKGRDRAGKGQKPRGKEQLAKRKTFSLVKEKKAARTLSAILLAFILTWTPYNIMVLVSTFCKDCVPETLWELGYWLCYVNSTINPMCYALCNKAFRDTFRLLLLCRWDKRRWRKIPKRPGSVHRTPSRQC

male Wistar rats = assay: Sleep-wakefulness monitoring (SCORE-2000, EEG/EMG) after oral dosing at CT-18; format: in vivo, rat
Protocol: Food and water were available ad libitum.
Treatments were administered orally as a bolus.
A parallel group study design was employed.
The results of NREM and LUSB parameters were measured for the loxapine derivatives such as Compounds 1, 2, 3, 5, 6, 7, 8, 9, 10, 12, 14, 17, 19, 20, 21, 23, 30, 31, 32, 39, 40, 42, 46, 50, 51, 52, 54, 56, and 58 and other compounds listed in Table 1.

H1 histamine receptor [7] = molecular target: T3, H1 histamine receptor (Bos taurus, UniProt P30546); assay: H1 competitive binding assay, [3H]pyrilamine, bovine cerebellar membranes; details: bovine cerebellar membrane
T3 construct: the receptors were obtained from bovine cerebellar membrane tissue; from tissue; host or cells: bovine cerebellar membranes

M2 muscarinic receptor = molecular target: T4, M2 muscarinic receptor (Homo sapiens, UniProt P08172); assay: M2 binding assay, [3H]-scopolamine N-methyl chloride, CHO cells; details: human recombinant
T4 construct: purchased PerkinElmer, Inc., Wellesley, Mass; host or cells: CHO cells
T4 sequence (P08172 1-466): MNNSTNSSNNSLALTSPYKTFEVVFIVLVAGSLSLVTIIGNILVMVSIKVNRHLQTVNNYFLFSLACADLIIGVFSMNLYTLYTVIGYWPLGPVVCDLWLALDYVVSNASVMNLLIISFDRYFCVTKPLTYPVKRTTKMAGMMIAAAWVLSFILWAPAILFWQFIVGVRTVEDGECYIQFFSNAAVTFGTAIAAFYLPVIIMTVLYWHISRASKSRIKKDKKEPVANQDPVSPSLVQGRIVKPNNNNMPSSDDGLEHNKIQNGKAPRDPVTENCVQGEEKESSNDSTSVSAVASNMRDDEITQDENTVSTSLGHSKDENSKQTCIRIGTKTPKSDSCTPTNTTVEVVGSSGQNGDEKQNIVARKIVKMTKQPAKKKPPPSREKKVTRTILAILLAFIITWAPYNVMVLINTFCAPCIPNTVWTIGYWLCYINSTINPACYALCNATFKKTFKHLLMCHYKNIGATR

Dopamine, D1 [8] = molecular target: Dopamine, D1 (Homo sapiens, UniProt P21728); assay: Dopamine D1 (human recombinant) binding assay
Protocol: as §1
Dopamine, D1 (human recombinant) binding assay was performed according to published procedures. See, e.g., Jarvie, et al. J. Recept Res., 13(1-4): 573-90 (1993); and Billard, et al. Life Sciences, 35(18): 1885-93 (1984), with modifications

M1 muscarinic receptor [9] = molecular target: T2, M1 muscarinic receptor; details: reference compounds; read-out: Ki of reference compounds, M1 binding assay; cited from earlier work

D2 receptors (Homo sapiens, UniProt P14416), sequence (P14416 whole entry): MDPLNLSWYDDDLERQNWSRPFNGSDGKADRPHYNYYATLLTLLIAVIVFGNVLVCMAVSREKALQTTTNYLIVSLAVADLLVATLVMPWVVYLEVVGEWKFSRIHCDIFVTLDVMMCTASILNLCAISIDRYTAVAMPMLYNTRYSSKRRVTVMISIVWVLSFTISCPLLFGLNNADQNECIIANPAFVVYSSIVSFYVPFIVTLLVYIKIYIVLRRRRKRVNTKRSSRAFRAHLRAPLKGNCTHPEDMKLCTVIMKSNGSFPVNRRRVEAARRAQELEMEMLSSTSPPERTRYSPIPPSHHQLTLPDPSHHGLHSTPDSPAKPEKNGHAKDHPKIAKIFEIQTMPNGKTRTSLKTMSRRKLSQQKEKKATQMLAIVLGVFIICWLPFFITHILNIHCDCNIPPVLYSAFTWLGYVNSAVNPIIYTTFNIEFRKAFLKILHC
D2 receptors (Rattus norvegicus, UniProt P61169), sequence (P61169 whole entry): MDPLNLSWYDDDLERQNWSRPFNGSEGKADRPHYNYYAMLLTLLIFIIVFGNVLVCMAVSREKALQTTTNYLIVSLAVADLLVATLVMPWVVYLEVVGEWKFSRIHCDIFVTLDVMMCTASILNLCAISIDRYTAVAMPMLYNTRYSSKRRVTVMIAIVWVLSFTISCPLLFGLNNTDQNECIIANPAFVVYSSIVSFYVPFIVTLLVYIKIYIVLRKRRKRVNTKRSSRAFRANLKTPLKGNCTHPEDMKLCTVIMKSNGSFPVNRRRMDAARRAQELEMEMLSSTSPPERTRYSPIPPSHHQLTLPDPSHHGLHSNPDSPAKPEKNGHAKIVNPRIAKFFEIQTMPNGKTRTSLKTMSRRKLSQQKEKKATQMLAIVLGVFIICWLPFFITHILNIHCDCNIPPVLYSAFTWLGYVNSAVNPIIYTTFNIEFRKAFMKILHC
T3 sequence (P30546 whole entry): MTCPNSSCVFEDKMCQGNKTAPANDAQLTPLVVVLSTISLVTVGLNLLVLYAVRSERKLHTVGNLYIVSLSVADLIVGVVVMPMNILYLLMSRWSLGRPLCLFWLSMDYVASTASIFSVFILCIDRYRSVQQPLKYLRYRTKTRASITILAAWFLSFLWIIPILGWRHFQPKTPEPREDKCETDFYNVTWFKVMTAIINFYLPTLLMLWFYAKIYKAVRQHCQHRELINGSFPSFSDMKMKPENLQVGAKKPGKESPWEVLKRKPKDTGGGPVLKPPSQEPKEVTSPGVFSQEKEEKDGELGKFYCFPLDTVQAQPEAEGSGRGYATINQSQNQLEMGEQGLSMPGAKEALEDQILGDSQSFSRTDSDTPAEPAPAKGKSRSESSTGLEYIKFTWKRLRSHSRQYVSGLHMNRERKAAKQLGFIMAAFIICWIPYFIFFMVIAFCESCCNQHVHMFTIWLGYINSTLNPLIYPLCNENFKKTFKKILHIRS
hERG channel, sequence (Q12809 whole entry): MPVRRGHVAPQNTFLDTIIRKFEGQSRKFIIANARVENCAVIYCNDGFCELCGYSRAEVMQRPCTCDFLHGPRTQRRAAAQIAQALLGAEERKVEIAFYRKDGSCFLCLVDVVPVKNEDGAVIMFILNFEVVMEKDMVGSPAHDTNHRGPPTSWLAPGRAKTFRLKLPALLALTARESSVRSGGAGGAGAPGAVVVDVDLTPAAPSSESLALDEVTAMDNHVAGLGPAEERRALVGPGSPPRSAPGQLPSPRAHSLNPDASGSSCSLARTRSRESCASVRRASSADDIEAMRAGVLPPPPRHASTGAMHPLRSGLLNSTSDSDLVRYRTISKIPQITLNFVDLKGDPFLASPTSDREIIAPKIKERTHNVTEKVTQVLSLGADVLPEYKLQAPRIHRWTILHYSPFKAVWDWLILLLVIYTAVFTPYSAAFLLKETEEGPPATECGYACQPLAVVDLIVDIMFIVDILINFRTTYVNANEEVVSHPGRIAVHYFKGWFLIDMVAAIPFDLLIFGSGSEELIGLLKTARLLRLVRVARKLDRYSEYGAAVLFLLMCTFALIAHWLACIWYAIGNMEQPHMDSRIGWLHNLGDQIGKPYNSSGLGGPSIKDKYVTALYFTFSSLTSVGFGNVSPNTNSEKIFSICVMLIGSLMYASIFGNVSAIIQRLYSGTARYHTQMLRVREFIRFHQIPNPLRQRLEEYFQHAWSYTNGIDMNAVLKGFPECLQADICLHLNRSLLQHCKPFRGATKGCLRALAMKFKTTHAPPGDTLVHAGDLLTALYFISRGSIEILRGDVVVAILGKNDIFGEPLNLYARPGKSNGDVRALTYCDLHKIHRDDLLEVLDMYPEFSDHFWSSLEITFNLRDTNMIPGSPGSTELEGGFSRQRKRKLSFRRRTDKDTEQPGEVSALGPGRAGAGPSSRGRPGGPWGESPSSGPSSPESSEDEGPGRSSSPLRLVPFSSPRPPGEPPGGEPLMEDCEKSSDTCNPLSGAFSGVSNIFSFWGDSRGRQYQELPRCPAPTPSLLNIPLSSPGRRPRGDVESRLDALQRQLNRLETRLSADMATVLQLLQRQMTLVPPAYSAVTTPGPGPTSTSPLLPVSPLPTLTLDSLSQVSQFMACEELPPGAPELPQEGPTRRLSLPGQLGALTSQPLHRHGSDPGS
Dopamine, D1 (Homo sapiens, UniProt P21728), sequence (P21728 whole entry): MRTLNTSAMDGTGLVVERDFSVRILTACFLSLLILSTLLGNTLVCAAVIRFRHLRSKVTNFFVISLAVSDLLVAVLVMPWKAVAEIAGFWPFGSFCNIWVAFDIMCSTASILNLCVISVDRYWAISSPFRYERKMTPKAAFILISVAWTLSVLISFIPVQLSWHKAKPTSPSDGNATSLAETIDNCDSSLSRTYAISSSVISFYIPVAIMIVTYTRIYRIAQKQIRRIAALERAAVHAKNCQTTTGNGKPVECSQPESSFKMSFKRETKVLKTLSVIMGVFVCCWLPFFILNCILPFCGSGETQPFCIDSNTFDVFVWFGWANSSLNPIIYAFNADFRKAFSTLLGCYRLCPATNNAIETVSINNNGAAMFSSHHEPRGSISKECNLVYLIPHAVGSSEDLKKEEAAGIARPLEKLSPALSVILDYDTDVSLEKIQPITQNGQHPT
T1 sequence (P20309 whole entry): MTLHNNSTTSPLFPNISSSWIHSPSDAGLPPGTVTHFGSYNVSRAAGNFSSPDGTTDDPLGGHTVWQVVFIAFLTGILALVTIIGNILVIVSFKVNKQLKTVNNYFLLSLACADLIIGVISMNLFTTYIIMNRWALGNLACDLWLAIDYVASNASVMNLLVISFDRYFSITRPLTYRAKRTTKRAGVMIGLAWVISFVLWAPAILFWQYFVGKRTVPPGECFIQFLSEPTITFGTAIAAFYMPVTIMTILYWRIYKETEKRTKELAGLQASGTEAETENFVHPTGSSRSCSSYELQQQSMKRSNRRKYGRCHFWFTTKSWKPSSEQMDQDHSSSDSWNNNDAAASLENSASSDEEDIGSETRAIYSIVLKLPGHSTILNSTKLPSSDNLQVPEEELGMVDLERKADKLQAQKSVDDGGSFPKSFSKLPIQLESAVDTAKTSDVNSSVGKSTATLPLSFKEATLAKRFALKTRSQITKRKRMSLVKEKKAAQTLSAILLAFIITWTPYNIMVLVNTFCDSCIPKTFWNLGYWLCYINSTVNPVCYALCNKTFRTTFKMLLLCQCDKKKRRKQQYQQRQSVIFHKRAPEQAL
H1 histamine receptor (Homo sapiens, UniProt P35367), sequence (P35367 whole entry): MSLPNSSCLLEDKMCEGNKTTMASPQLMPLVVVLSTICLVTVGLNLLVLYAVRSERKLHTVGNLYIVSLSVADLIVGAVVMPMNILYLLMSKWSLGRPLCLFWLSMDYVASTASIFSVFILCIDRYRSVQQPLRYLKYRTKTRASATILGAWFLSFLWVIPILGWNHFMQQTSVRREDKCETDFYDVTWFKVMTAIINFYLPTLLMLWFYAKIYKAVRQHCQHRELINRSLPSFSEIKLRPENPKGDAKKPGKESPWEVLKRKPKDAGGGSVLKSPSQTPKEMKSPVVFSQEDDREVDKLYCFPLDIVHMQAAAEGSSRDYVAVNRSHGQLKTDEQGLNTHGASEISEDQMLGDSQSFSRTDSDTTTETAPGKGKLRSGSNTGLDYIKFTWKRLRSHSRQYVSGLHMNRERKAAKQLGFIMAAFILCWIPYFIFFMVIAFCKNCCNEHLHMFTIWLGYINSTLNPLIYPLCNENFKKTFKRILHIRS
Dopamine, D1 (Rattus norvegicus, UniProt P18901), sequence (P18901 whole entry): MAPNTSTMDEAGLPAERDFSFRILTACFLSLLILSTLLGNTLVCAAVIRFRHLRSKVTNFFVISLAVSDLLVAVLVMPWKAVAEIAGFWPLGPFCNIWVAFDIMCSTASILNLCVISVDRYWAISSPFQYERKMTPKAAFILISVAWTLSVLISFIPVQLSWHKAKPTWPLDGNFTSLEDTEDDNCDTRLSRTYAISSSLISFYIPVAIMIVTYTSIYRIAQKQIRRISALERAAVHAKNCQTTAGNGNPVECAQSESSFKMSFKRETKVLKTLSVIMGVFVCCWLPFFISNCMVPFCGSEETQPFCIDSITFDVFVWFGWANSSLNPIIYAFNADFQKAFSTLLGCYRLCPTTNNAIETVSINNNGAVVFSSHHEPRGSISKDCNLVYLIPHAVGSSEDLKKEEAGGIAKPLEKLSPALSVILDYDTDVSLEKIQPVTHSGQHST
H1 histamine receptor (Rattus norvegicus, UniProt P31390), sequence (P31390 whole entry): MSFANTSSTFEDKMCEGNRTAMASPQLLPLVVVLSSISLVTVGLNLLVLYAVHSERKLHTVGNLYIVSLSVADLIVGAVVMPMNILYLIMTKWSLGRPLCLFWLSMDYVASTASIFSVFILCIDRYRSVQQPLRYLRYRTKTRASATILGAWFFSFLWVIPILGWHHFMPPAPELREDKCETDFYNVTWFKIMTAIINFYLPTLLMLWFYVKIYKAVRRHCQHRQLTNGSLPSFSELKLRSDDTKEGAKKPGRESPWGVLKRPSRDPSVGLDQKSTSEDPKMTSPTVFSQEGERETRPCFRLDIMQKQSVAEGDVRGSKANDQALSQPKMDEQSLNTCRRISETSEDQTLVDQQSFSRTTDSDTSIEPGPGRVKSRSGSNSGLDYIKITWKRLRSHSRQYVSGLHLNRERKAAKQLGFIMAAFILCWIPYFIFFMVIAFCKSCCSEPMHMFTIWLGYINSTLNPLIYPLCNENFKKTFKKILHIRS

Row | Compound | Ki (Dopamine, D1 [1]) [µM] | Ki (M3 muscarinic receptor) [µM] | Ki (H1 histamine receptor [2]) [µM] | Ki (alpha 2 receptors) [µM] | Ki (alpha 1 receptors) [µM] | Ki (D2 receptors [3]) [µM] | Ki (H1 histamine receptor [4]) [µM] | Ki (D2 receptors [5]) [µM] | Ki (M1 muscarinic receptor [6]) [µM] | Ki (H1 histamine receptor [7]) [µM] | Ki (M2 muscarinic receptor) [µM] | Ki (Dopamine, D1 [8]) [µM] | hERG at 10 micromolar (% blocking of the hERG channel) (hERG channel) [%] | NREM (male Wistar rats; dose 30 mg/kg) [min] | NREM (male Wistar rats; dose 3 mg/kg) [min] | Ki (M1 muscarinic receptor [9]) [µM]
1 | C[N+]1(C)CCC(OC(=O)C(c2ccccc2)c2ccccc2)CC1 [4-DAMP methiodide] | – | – | – | – | – | – | – | – | – | – | – | – | – | – | – | 0.00027
2 | Cc1ccc2c(c1)Oc1ccccc1C(N1CCN(CC(C)(C)C(=O)O)CC1)=N2 [Compound 30] | – | > 10 | – | > 10 | > 10 | > 10 | – | – | > 10 | 0.0906 | > 10 | 5.06 | 4.50 | – | – | –
3 | Cc1ccc2c(c1)C(N1CCN(CC(C)(C)C(=O)O)CC1)=Nc1ccccc1O2 [Compound 10] | – | > 10 | – | > 10 | > 10 | 1.67 | – | – | > 10 | 0.0396 | > 10 | 3.16 | 14 | – | – | –
4 | COc1ccc2c(c1)C(N1CCN(CC(C)(C)C(=O)O)CC1)=Nc1ccccc1O2 [Compound 12] | – | > 10 | – | > 10 | > 10 | 1.24 | – | – | > 10 | 0.137 | > 10 | 5.22 | 7.20 | – | – | –
5 | COc1ccc2c(c1)C(N1CCN(CC(C)(C)C(=O)O)CC1)=Nc1cc(Br)ccc1O2 [Compound 51] | – | > 10 | – | 0.966 | 0.148 | 0.17 | – | – | > 10 | 0.0278 | > 10 | 1.04 | 32 | – | – | –
6 | COc1ccc2c(c1)N=C(N1CCN(CC(C)(C)C(=O)O)CC1)c1ccccc1O2 [Compound 21] | – | > 10 | – | > 10 | > 10 | > 10 | – | – | > 10 | 0.0572 | > 10 | > 10 | 0 | – | – | –
7 | CC(C)(CN1CCN(C2=Nc3ccccc3Oc3ccc(Cl)cc32)CC1)C(=O)O [Compound 5] | – | > 10 | – | > 10 | 3.02 | 1.61 | – | – | > 10 | 0.0239 | > 10 | 4.52 | 36 | – | – | –
8 | CC(C)(CCN1CCN(C2=Nc3ccccc3Oc3ccccc32)CC1)C(=O)O [Compound 3] | – | > 10 | – | > 10 | > 10 | 1.19 | – | – | > 10 | 0.00733 | > 10 | 4.92 | 3.8 | – | – | –
9 | O=C(O)C1(CN2CCN(C3=Nc4ccccc4Oc4ccc(Br)cc43)CC2)CC1 [Compound 9] | – | > 10 | – | > 10 | > 10 | 0.0533 | – | – | > 10 | 0.036 | > 10 | 1.12 | 59 | – | – | –

Further lines, with some results ahead:

Row | Ki (Dopamine, D1 [1]) [µM] | Ki (M3 muscarinic receptor) [µM] | Ki (H1 histamine receptor [2]) [µM] | Ki (alpha 2 receptors) [µM] | Ki (alpha 1 receptors) [µM] | Ki (D2 receptors [3]) [µM] | Ki (H1 histamine receptor [4]) [µM] | Ki (D2 receptors [5]) [µM] | Ki (M1 muscarinic receptor [6]) [µM] | Ki (H1 histamine receptor [7]) [µM] | Ki (M2 muscarinic receptor) [µM] | Ki (Dopamine, D1 [8]) [µM] | Compound | hERG at 10 micromolar (% blocking of the hERG channel) (hERG channel) [%] | NREM (male Wistar rats; dose 30 mg/kg) [min] | NREM (male Wistar rats; dose 3 mg/kg) [min] | Ki (M1 muscarinic receptor [9]) [µM]
10 | > 10 | > 10 | 0.0317 | > 10 | > 10 | 1.87 | 0.0588 | > 10 | > 10 | 0.0228 | > 10 | > 10 | CC(C)(CN1CCN(C2=Nc3ccccc3Oc3ccccc32)CC1)C(=O)NS(C)(=O)=O [Compound 40] | 5.6 | 43 ± 4 | – | –
11 | > 10 | > 10 | 0.0237 | > 10 | > 10 | > 10 | 0.0115 | > 10 | > 10 | 0.0403 | > 10 | > 10 | CC(C)(CN1CCN(C2=Nc3ccccc3Oc3ccccc32)CC1)C(=O)O [Compound 1] | 6.2 | – | 39 ± 6 | –
12 | – | > 10 | – | > 10 | > 10 | > 10 | – | 2.73 | > 10 | – | – | > 10 | CC(C)(CN1CCN(C2=Nc3ccccc3Oc3ccc(F)cc32)CC1)C(=O)O [Compound 4] | 8 | – | – | –
13 | – | > 10 | – | > 10 | > 10 | > 10 | – | – | > 10 | 0.135 | > 10 | > 10 | COc1ccc2c(c1)N=C(N1CCN(CC(C)(C)C(=O)O)CC1)c1cc(OC)ccc1O2 [Compound 23] | 8.90 | – | – | –
14 | – | > 10 | – | > 10 | > 10 | > 10 | – | – | > 10 | 0.0514 | > 10 | > 10 | O=C(O)C1(CN2CCN(C3=Nc4ccccc4Oc4ccccc43)CC2)CC1 [Compound 2] | 19 | – | – | –
